Tests used:
U-87MG cells [1] = test: Cell senescence assay (β-galactosidase activity); assay type: cell-based, human; settings: 12 h / 6 h (supplementary method)
Description: Figure 3 The D-Δ(1-18)N-Ter-Antp peptide induced autophagy and cellular senescence and altered the expression of apoptosis-related proteins. (A,B) U-87MG cells were treated with the indicated concentrations of D-Δ(1-18)N-Ter-Antp peptide for 12 h and then were subjected to immunoblotting for caspase-9, AIF, Bcl-xL, Bcl-2, and Bax and the relative expression level was quantified (B). (C,D) U-87MG cells were treated with the indicated concentrations of D-Δ(1-18)N-Ter-Antp peptide for 12 h and then subjected to immunoblotting for the autophagy markers LC3-I and LC3-II (C) and LC3-II quantification (D). (E,F) U-87MG cells were treated with the indicated concentrations of D-Δ(1-18)N-Ter-Antp peptide for 12 h and then subjected to β-gal activity (blue). Mouse embryonic fibroblast cells at passage 10 (MEF-P10) served as a positive control of senescent cells. Quantification of β-gal staining intensity (F). Data are presented as the mean ± SD, n = 3, * p < 0.05; ** p < 0.01; *** p < 0.001 versus control group. NS, non-specific. […]
color was read in a spectrophotometer at 680 nm. […]
U-87MG cells were treated with D-Δ(1-18)N-Ter-Antp peptide in serum-free DMEM media for 6 h at 37℃, incubated with acridine orange (1 μg/ml) for 15 min, visualized by fluorescence microscopy (Olympus LX2 - KSP, Tokyo, Japan), and images were captured with a CCD camera. About 200 cells were counted for each […]

U-87MG cells [2] = test: Cell morphology / cell size by light microscopy; assay type: cell-based, human; settings: 16 h treatment
Description: Cells were seeded in a 6-well plates, treated with D-Δ(1-18)N-Ter-Antp peptide for 24 h, and monitored with the Holomonitor live cell imaging system (Holographic Imaging, Lund, Sweden) for 24 h at 37 °C and 5% CO2 or with a microscope (LX2-KSP; Olympus, Shinjuku, Tokyo, Japan), with images captured by a CCD camera.
Figure 2 D-Δ(1-18)N-Ter-Antp-induced changes in cell morphology and cell membrane permeability. (A,B) U-87MG cells were treated with the indicated concentrations of D-Δ(1-18)N-Ter-Antp peptide for 16 h, and cell morphology was monitored by light microscope (A). Quantification of cell size (B). (C,D) U-87MG cells were untreated or treated with 10 μM of D-Δ(1-18)N-Ter-Antp peptide or N-TerΔ(21-26)-Antp for 24 h, and cell morphology was monitored by light microscope (C). Quantification of cell size (D). (E,F) Cells were stained with anti-vinculin antibodies, followed by secondary anti-mouse-cy3 antibodies. Scale bars are 20 μm. White arrows point to focal adhesion (E). Quantification of vinculin staining intensity (F). (G) D-Δ(1-18)N-Ter-Antp-induced cell membrane permeability changes in HeLa cells. Cells were treated with D-Δ(1-18)N-Ter-Antp peptide (10 µM) for 6 h and subjected to FM4-64 dye staining. Yellow arrows point to apoptotic cells with apoptotic bodies. (H) Quantification of fluorescence intensity of FM4-64. * p < 0.05, *** p < 0.001, **** p < 0.0001 (n = 3). […]

19-FTKGYGFGL-26- RQIKIWFQNRRMKWKK [D-Δ(1-18)N-Ter-Antp]
Cellular senescence, β-galactosidase activity (U-87MG cells [1]): showed cellular senescence | Enlarged cell area relative to untreated cells (U-87MG cells [2]): up to 3 fold

Reference: PMC9599717, “The Multicellular Effects of VDAC1 N-Terminal-Derived Peptide” (Biomolecules, 2022)
